{
  "source": "patent US20250090472A1",
  "about": "“LIPID NANOPARTICLE COMPOSITIONS AND USES THEREOF” (BEIJING JITAI PHARMACEUTICAL TECHNOLOGY CO., LTD., priority 2023, published 2025)",
  "data": [
    {"tested_on": "C57BL/6 mice", "assay": "In vivo bioluminescence assay of LNPs encapsulating luciferase mRNA (without permanently cationic lipid)", "conditions": "intravenous single dose 0.5 mg/kg luciferase mRNA, 6 h after administration, group mean", "procedure": "The delivery effect and safety of nanoparticles encapsulated with luciferase mRNA (Trilink, L-7202) in mice were evaluated. The test mice were SPF-grade C57BL/6 mice, female, 6-8 weeks old, weighing 18-22 g, and were purchased from SPF (Beijing) Biotechnology Co., Ltd. All animals were acclimatized for more than 7 days prior to the experiment, and had free access to food and water during the experiment. The conditions include alternating light and dark for 12/12 h, the indoor temperature of 20-26° C. and the humidity of 40-70%. The mice were randomly grouped. The lipid nanoparticles encapsulated with luciferase mRNA prepared above were injected into mice by intravenous administration at a single dose of 0.5 mg/kg mRNA, and the mice were subjected to in vivo bioluminescence assay using a Small Animal In Vivo Imaging System (IVIS LUMINA III, purchased from PerkinElmer) at 6 h after administration. The assay was performed as follows: D-luciferin solution was prepared in saline at a concentration of 15 mg/mL, and each mouse was given the substrate by intraperitoneal injection. At ten minutes after administration of the substrate, the mice were anesthetized in an anesthesia chamber with isoflurane at a concentration of 2.5%. The anesthetized mice were placed in IVIS for luminescent imaging. Data acquisition and analysis were performed on the concentrated distribution area of luminescence.\nThe in vivo delivery efficiency of lipid nanoparticle carriers was expressed as the mean values of fluorescence intensity and total photon count in different animals measured at 6 hours after administration of the lipid nanoparticle within the same subject group, as shown in Table 4. Higher values of fluorescence intensity and total photon count indicate higher in vivo delivery efficiency of this mRNA fragment by the lipid nanoparticles.", "values": [
      {"smiles": "CCCCCCCCCCOC(=O)C(C)(C)CCCCCC(CCCCCC(C)(C)C(=O)OCCCCCCCCCC)OC(=O)CCN(C)C", "note": "[Compound 1]", "Total photon count in vivo (Total Flux)": "6.43E+08"},
      {"smiles": "CCCCCCCCN(CCCCCCCC)CCOC(=O)C(C)(C)CCCCCC(CCCCCC(C)(C)C(=O)OCCN(CCCCCCCC)CCCCCCCC)OC(=O)CCN(C)C", "note": "[Compound 15]", "Total photon count in vivo (Total Flux)": "4.89E+08"},
      {"smiles": "CCCCCCC#CCCOC(=O)C(C)(C)CCCCCC(CCCCCC(C)(C)C(=O)OCCC#CCCCCCC)OC(=O)CCCN(C)C", "note": "[Compound 24]", "Total photon count in vivo (Total Flux)": "5.56E+09"},
      {"smiles": "CCCCCCCCCOC(=O)CC(C)(C)CCCCC(CCCCC(C)(C)CC(=O)OCCCCCCCCC)OC(=O)CCCN(C)C", "note": "[Compound 97]", "Total photon count in vivo (Total Flux)": "3.37E+09"},
      {"smiles": "CCCCCCCCCCOC(=O)C(C)(C)CCCCCC(CCCCCC(C)(C)C(=O)OCCCCCCCCCC)OC(=O)C1CCN(C)CC1", "note": "[Compound 99]", "Total photon count in vivo (Total Flux)": "5.30E+09"},
      {"smiles": "CCCCCCCCCSC(=O)C(C)(C)CCCCCC(CCCCCC(C)(C)C(=O)SCCCCCCCCC)OC(=O)CC1CCN(CCO)CC1", "note": "[Compound 110]", "Total photon count in vivo (Total Flux)": "2.06E+08"},
      {"smiles": "CCCCCCCCCOC(=O)C(C)(C)CCCCCC(CCCCCC(C)(C)C(=O)OCCCCCCCCC)OC(=O)CC1CCN(CCO)CC1", "note": "[Compound 113]", "Total photon count in vivo (Total Flux)": "3.59E+08"},
      {"smiles": "CCCCCCCCCOC(=O)C(C)(C)CCCCCC(CCCCCC(C)(C)C(=O)OCC(CCCCC)CCCCCCC)OC(=O)CC1CCN(CCO)CC1", "note": "(centres unmarked) [Compound 114]", "Total photon count in vivo (Total Flux)": "1.06E+08"},
      {"smiles": "CCCCCCCCCSC(=O)C(C)(C)CCCCCC(CCCCCC(C)(C)C(=O)OCC#CCCC(CCCC)CCCC)OC(=O)CCCN(C)C", "note": "(centres unmarked) [Compound 119]", "Total photon count in vivo (Total Flux)": "3.25E+10"},
      {"smiles": "CC(C)CCCCCCCOC(=O)CCC(C)(C)CCCC(CCCC(C)(C)CCC(=O)OCCCCCCCC(C)C)OC(=O)CCCN(C)C", "note": "[Compound 127]", "Total photon count in vivo (Total Flux)": "3.59E+10"},
      {"smiles": "CCCCC/C=C\\C/C=C\\CCCCCCCCC(CCCCCCCC/C=C\\C/C=C\\CCCCC)OC(=O)CCCN(C)C", "note": "[Dlin-MC3-DMA, reference compound]", "Total photon count in vivo (Total Flux)": "8.04E+09"}
    ]}
  ]
}
